This is an account of results in US5318858A, “Antacid composition” (priority 1992, dated 1994).

Data set [1] can be described thus: Labelling of aluminum phosphate gel-containing antacid material with nuclide materials. It is filed as physicochemical. An excerpt: After testing several nuclide materials having suitable gamma energies in the range of from 60 to 500 keV, such as ^99m technetium-containing materials (^99m Tc-sulfur colloids, ^99m Tc-albumin microspheres, ^99m Tc-dimercaptosuccinic acid complexes, ^99m Tc-polyphosphates, -pyrophosphates and -diphosphonates), it appeared that ^99m Tc-hydroxymethylene diphosphonate (^99m Tc-HMDP) is the most suitable radiopharmaceutical material for labelling aluminum phosphate gel-containing antacid material.

Data set [2] is described as follows: Acid neutralizing capacity (ANC) test and contribution of each active ingredient (21 C.F.R. 331). It is filed as physicochemical. As for the experimental part:
Acid Neutralizing Capacity
Reagent standardization: as disclosed above.
Temperature: as disclosed above.
pH meter: as disclosed above.
Test suspension: the composition of Ex 1 was well-mixed and exactly 16.0 g (one unit dose) were transferred into a 250 ml glass beaker; sufficient water was added to obtain a total volume of about 70 ml; the resulting suspension was then mixed by means of a magnetic stirrer at 300±30 rpm for one minute. […]
Calculation of the mEq value: the number of mEq of acid neutralized by the test suspension was calculated as follows: […]
an accurately measured volume of an aluminum phosphate suspension containing exactly 9.904 g of aluminum phosphate gel, corresponding to the amount present in a one unit dose (16 g) of the antacid composition of Ex 1, were placed into a 250 ml glass beaker; distilled water was added up to a volume of 70 ml and the resulting suspension was mixed by means of a magnetic stirrer at 300±30 rpm for one minute; […]
Calculation: the percent contribution of each active ingredient in the total antacid composition of Ex 1 was calculated as follows: [formula]

For data set [3] the following is noted: 21 C.F.R. 331; cited from earlier work.
For data set [4] the following is noted: oral, cited from earlier work.

Where two headings read alike, the source gives them in different places.

Take “^99m Tc-hydroxymethylene diphosphonate [^99m Tc-HMDP]”: the labelling efficiency entry in data set [1] is “high labelling efficiency”. Besides, in data set [1] (mainly glass), the “adsorption onto the wall of the reaction vessels or tubes” value is given as “substantially non-adsorbed”.
Turning to `[O]=[Mg]` [MgO, magnesium oxide], the “contribution of active ingredient to ANC” value in data set [2] (amount present in one unit dose of Ex 1) was 4.88 mEq. The “percent contribution of active ingredient to total ANC” value in data set [2] (relative to total antacid composition of Ex 1) stood at 40%.
As for sucralfate, in data set [3], the antacid properties entry is “devoid of any antacid properties”. The Al-adhesiveness duration in data set [4] (no ulceration) was 3 to 4 h; in data set [4] (ulcerated sites of the gastric mucous membrane), “about 24 h”.
